This test deals with T1, mGlyT-1b (Mus musculus, UniProt P28571).
T1 construct: host or cells: Flp-in-CHO
T1 sequence (P28571 1-651 isoform P28571-2): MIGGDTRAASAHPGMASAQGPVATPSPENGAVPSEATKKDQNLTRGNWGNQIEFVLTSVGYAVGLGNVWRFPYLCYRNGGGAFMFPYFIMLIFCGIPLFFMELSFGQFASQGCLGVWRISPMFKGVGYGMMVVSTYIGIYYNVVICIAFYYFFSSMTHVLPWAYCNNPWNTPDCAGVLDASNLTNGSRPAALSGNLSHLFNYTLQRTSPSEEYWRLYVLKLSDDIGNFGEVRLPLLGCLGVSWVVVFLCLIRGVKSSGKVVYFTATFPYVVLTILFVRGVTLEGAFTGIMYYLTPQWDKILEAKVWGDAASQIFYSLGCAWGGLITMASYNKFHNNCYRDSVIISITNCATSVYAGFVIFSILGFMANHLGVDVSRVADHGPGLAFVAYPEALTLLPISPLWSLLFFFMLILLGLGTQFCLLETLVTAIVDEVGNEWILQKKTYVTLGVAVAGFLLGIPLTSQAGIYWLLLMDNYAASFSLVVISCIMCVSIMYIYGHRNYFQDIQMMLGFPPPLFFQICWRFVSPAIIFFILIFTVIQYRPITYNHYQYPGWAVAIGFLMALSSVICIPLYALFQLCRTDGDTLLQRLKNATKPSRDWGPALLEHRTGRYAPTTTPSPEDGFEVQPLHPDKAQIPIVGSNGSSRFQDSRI
The test is described as follows: Glycine Uptake Inhibition Assay (mGlyT-1b). Type of test: cell-based. Particulars: [3H]-glycine uptake, Flp-in-CHO cells transfected with mGlyT-1b cDNA, 20 min preincubation at 22° C.; read-out: IC50 (μM) at GlyT-1. How it is done:
DMEM complete medium: Nutrient mixture F-12 (Gibco Life-technologies), fetal bovine serum (FBS) 5%, (Gibco life technologies), Penicillin/Streptomycin 1% (Gibco life technologies), Hygromycin 0.6 mg/ml (Gibco life technologies), Glutamine 1 mM Gibco life technologies)
Uptake buffer (UB): 150 mM NaCl, 10 mM Hepes-Tris, pH 7.4, 1 mM CaCl2, 2.5 mM KCl, 2.5 mM MgSO4, 10 mM (+) D-glucose.
Flp-in™-CHO (Invitrogen Cat n° R758-07) cells stably transfected with mGlyT1b cDNA.
Glycine Uptake Inhibition Assay (mGlyT-1b)
On day 1 mammalian cells, (Flp-in™-CHO), transfected with mGlyT-1b cDNA, were plated at the density of 40,000 cells/well in complete F-12 medium, without hygromycin in 96-well culture plates. On day 2, the medium was aspirated and the cells were washed twice with uptake buffer (UB). The cells were then incubated for 20 min at 22° C. with either (i) no potential competitor, (ii) 10 mM non-radioactive glycine, (iii) a concentration of a potential inhibitor. A range of concentrations of the potential inhibitor was used to generate data for calculating the concentration of inhibitor resulting in 50% of the effect (e.g. IC50, the concentration of the competitor inhibiting glycine uptake of 50%). A solution was then immediately added containing [^3H]-glycine 60 nM (11-16 Ci/mmol) and 25 μM non-radioactive glycine. The plates were incubated with gentle shaking and the reaction was stopped by aspiration of the mixture and washing (three times) with ice-cold UB. The cells were lysed with scintillation liquid, shaken 3 hours and the radioactivity in the cells was counted using a scintillation counter.
In general, IC50 refers to the concentration needed to halve the response being measured. Consider `O=C(c1cc([N+](=O)[O-])ccc1N1CCOCC1)N1CC=C(c2ccccc2)CC1` [Example 1, (2-Morpholin-4-yl-5-nitro-phenyl)-(4-phenyl-3,6-dihydro-2H-pyridin-1-yl)-methanone], for which the IC50 stood at 0.803 µM.
As for `O=C(c1cc([N+](=O)[O-])ccc1N1CCOCC1)N1CC=C(c2ccc(Cl)cc2)CC1` [Example 2, [4-(4-Chloro-phenyl)-3,6-dihydro-2H-pyridin-1-yl]-(2-morpholin-4-yl-5-nitrophenyl) methanone], the concentration for half-maximal inhibition (IC50) was determined as 0.432 µM.
As to `N#Cc1ccc(C2=CCN(C(=O)c3cc([N+](=O)[O-])ccc3N3CCOCC3)CC2)cc1` [Example 3, 4-[1-(2-Morpholin-4-yl-5-nitro-benzoyl)-1,2,3,6-tetrahydro-pyridin-4-yl]benzonitrile], the half-maximal inhibitory concentration (IC50) amounted to 0.27 µM.
The same measure for `CS(=O)(=O)c1ccc(OCC(F)(F)F)c(C(=O)N2CC=C(c3ccc(C(F)(F)F)cc3)CC2)c1` [Example 4, [5-Methanesulfonyl-2-(2,2,2-trifluoro-ethoxy)-phenyl]-[4-(4-trifluoromethyl-phenyl)3,6-dihydro-2H-pyridin-1-yl]-methanone]: 0.122 µM.
Consider `CS(=O)(=O)c1ccc(N2CCOCC2)c(C(=O)N2CC=C(c3ccc(C(F)(F)F)cc3)CC2)c1` [Example 5, (5-Methanesulfonyl-2-morpholin-4-yl-phenyl)-[4-(4-trifluoromethyl-phenyl)-3,6 dihydro-2H-pyridin-1-yl]-methanone], for which the half-inhibitory concentration (IC50) came to 0.232 µM.
`CS(=O)(=O)c1ccc(C2=CCN(C(=O)c3cc([N+](=O)[O-])ccc3N3CCOCC3)CC2)cc1` [Example 6, [4-(4-Methanesulfonyl-phenyl)-3,6-dihydro-2H-pyridin-1-yl]-(2-morpholin-4-yl-5-nitro-phenyl)-methanone]: the IC50 turned out to be 0.251 µM.
Under `CC(C)Oc1ccc(S(C)(=O)=O)cc1C(=O)N1CC=C(c2ccc(S(C)(=O)=O)cc2)CC1` [Example 7, (2-Isopropoxy-5-methanesulfonyl-phenyl)-[4-(4-methanesulfonyl-phenyl)-3,6-dihydro-2H-pyridin-1-yl]-methanone] stands 0.87 µM; under `CS(=O)(=O)c1ccc(C2=CCN(C(=O)c3cc(S(C)(=O)=O)ccc3OC3CCCC3)CC2)cc1` [Example 8, (2-Cyclopentyloxy-5-methanesulfonyl-phenyl)-[4-(4-methanesulfonyl-phenyl)-3,6-dihydro-2H-pyridin-1-yl]-methanone], 0.201 µM; under `CC(C)Oc1ccc(C#N)cc1C(=O)N1CC=C(c2ccc(Cl)cc2)CC1` [Example 9, 3-[4-(4-Chloro-phenyl)-3,6-dihydro-2H-pyridine-1-carbonyl]-4-isopropoxy-benzonitrile], 0.28 µM.
The same measure for `CS(=O)(=O)c1ccc(OCC2CC2)c(C(=O)N2CC=C(c3ccc(Cl)cc3)CC2)c1` [Example 10, [4-(4-Chloro-phenyl)-3,6-dihydro-2H-pyridin-1-yl]-(2-cyclopropylmethoxy-5-methanesulfonyl-phenyl)-methanone]: 0.056 µM.
